Laboratory results published in US20240238201A1, “LIPOSOME CARRIER-BASED MULTI-TARGET COMPLEX, DRUG DELIVERY PLATFORM CONTAINING THE SAME, AND APPLICATION THEREOF” (HANGZHOU XINGAO BIOTECHNOLOGY CO., LTD., priority 2021, published 2024).

Key:
[1] = system: mouse melanoma cell line B16F0; test: Subcutaneous graft tumors of mouse melanoma cell line B16F0 in C57BL/6 mice; format: in vivo; conditions: intraperitoneal once a day for 21 days; for Average tumor weight (g): doses of Table 1, n = 10, mean ± SD; for Average tumor suppression rate (%): doses of Table 1, vs negative control
Protocol: (§1) Specie and strain: BalB/C ordinary mice and C57BL/6 ordinary mice.
(§2) Route of administration: intraperitoneal injection.
(§3) Dose of the novel multi-target immune complex: 200 μL/each;
(§4) Dosing frequency: once a day for 21 consecutive days;
(§5) Number of animals per group: 10.
(§6) Used herein are mouse colorectal cancer cell line CT26, mouse breast cancer cell line 4T1 and mouse melanoma cell line B16F10, which were purchased from the cell bank of Chinese Academy of Sciences.
(§7) Cancer cells were cultured, passaged, collected at the logarithmic phase of cells, and prepared into a cell suspension at a concentration of (1.0×10^7) per ml. Mice were injected with 0.2 ml of the cell suspension at the axilla of the right forelimb (cell number 2.0×10^6 cells/each), and tumorigenicity was successful in about 8 days.
(§8) These mice were randomly divided into 11 groups equally, namely, group A: negative control group (PBS group), group B: positive control (cGAMP) group (dose: 10 mg/kg), group C: ENPP1-YZ1 group (dose: 5 mg/kg), group D: ENPP1-YZ2 group (dose: 5 mg/kg), group E: anti-PD-L1 VHH group (dose: 2.5 mg/kg), group F: anti-CD47 VHH group (dose: 2.5 mg/kg), group G: complex I group, group H: complex II group, group I: complex III group, group J: complex IV group, and group K: complex V group. The mice were administered once a day for 21 days. After 21 days, the mice were executed, the tumor weight was weighed, and the tumor inhibition rate was calculated by [1-average tumor weight of experimental groups (groups B, C, D, E, F, G, H, I, J, and K)/average tumor weight of group A]×100%.
(§9) The mouse colorectal cancer cell line CT26 was prepared and injected into BalB/C ordinary mice. The mouse breast cancer cell line 4T1 was prepared and injected into BalB/C ordinary mice. The melanoma cell line B16F0 was prepared and injected into C57BL/6 ordinary mice. The anti-tumor effects of different drugs were observed.
(§10) Data were expressed as x±s and processed using a SPSS 10.0 software. One-way ANOVA test was used to compare the significance of the differences in tumor weight between groups, with a significance level a=0.05.

[2] = system: mouse breast cancer cell line 4T1; test: Subcutaneous graft tumors of mouse breast cancer cell line 4T1 in BalB/C mice, with lung metastasis nodules; format: in vivo; conditions: for Average tumor weight (g) / Average tumor suppression rate (%) / Number of metastatic lung nodules: 4T1 in BalB/C mice; for Average tumor weight (g) / Average tumor suppression rate (%): intraperitoneal once a day for 21 days; for Average tumor weight (g): doses of Table 1, n = 10, mean ± SD; for Average tumor suppression rate (%): doses of Table 1, vs negative control; for Number of metastatic lung nodules: lungs after 21 days of dosing, negative control 35; for number of lung tumor nodules compared with the model group (in words): 4T1 breast cancer lung metastasis, lungs fixed with 4% paraformaldehyde
Protocol: as §1, §2, §3, §4, §5, §6, §7, §8, §9, §10
Dissections were performed on mice that had been executed for the 4T1 breast cancer study, where the lung tissues were carefully peeled off and photographed for observation after fixation with 4% paraformaldehyde. It could be clearly seen that the lungs of the mice in the model group were black and existed multiple white tumor nodules with various sizes on the surface. […] By statistical analysis of the tumor nodules in the lung tissues of mice, the results of the efficacy of inhibiting the lung metastasis of breast cancer cells were shown in Table 3.

[3] = system: murine colorectal cancer cell CT26; test: Subcutaneous graft tumors of murine colorectal cancer cell CT26 in BalB/C mice; format: in vivo, mouse; conditions: intraperitoneal once a day for 21 days; for Average tumor weight (g): doses of Table 1, n = 10, mean ± SD; for Average tumor suppression rate (%): doses of Table 1, vs negative control
Protocol: as §1, §2, §3, §4, §5, §6, §7, §8, §9, §10

2-[(4-methyl-(thiazolo[4,5-B]pyridinyl)-2-thio)methyl]-7-fluoro quinazoline-4(3H)-one [ENPP1-YZ2]
Average tumor weight (g) [1]: 0.926 ± 0.227 (g)
Average tumor suppression rate (%) [1]: 61.2%
Average tumor weight (g) [2]: 0.852 ± 0.223 (g)
Average tumor suppression rate (%) [2]: 62.5%
Number of metastatic lung nodules [2]: 20
Average tumor weight (g) [3]: 0.805 ± 0.218 (g)
Average tumor suppression rate (%) [3]: 64.5%

Nc1nc2c(ncn2[C@@H]2O[C@@H]3COP(=O)(O)O[C@H]4[C@@H](O)[C@H](n5cnc6c(N)ncnc65)O[C@@H]4COP(=O)(O)O[C@@H]2[C@@H]3O)c(=O)[nH]1 [cGAMP, cyclic dinucleotide 2′,3′-cGAMP, reference compound]
Average tumor weight (g) [1]: 0.808 ± 0.137 (g)
Average tumor suppression rate (%) [1]: 66.1%
number of lung tumor nodules compared with the model group (in words) [2]: a decrease in the number of tumor nodules
Average tumor weight (g) [2]: 0.775 ± 0.221 (g)
Average tumor suppression rate (%) [2]: 65.9%
Number of metastatic lung nodules [2]: 12
Average tumor weight (g) [3]: 0.706 ± 0.152 (g)
Average tumor suppression rate (%) [3]: 68.8%

COc1ccc2[nH]c(SCc3nc4cc(F)ccc4c(=O)[nH]3)nc2n1 [ENPP1-YZ1, 2-[(5-methoxy-(imidazo[4,5-B]pyridinyl)-2-thio)methyl]-7-fluoroquinazoline-4(3H)-one]
Average tumor weight (g) [1]: 0.943 ± 0.208 (g)
Average tumor suppression rate (%) [1]: 60.5%
Average tumor weight (g) [2]: 0.898 ± 0.136 (g)
Average tumor suppression rate (%) [2]: 60.5%
Number of metastatic lung nodules [2]: 21
Average tumor weight (g) [3]: 0.816 ± 0.203 (g)
Average tumor suppression rate (%) [3]: 63.9%

B1: Anti-CD47 VHH: anti-CD47 nanobody, SEQ ID NO: 2, 6His-tagged, expressed in E. coli (protein)
VHH: QVQLVESGGGLVEPGGSLRLSCAASGIIFKINDMGWYRQAPGKRREWVAASTGGDEAIYRDSVKDRFTISRDAKNSVFLQMNSLKPEDTAVYYCTAVISTDRDGTEWRRYWGQGTQVTVSS
modifications: 6His tag
Average tumor weight (g) [1]: 1.809 ± 0.217 (g)
Average tumor suppression rate (%) [1]: 24.2%
number of lung tumor nodules compared with the model group (in words) [2]: a small decrease in the number of tumor nodules
Average tumor weight (g) [2]: 1.805 ± 0.176 (g)
Average tumor suppression rate (%) [2]: 20.2%
Number of metastatic lung nodules [2]: 25
Average tumor weight (g) [3]: 1.807 ± 0.187 (g)
Average tumor suppression rate (%) [3]: 20.2%

B2: Anti-PD-L1 VHH: anti-PD-L1 nanobody, SEQ ID NO: 1, 6His-tagged, expressed in E. coli (protein)
VHH: QVQLQESGGGLVQTGGSLRLSCAASGSTVSSSMMAWWRQTPGNQRELVALVASGNNTNYVDSVKGRFTVSRDNAKNTMYLQMNSLKPEDTAVYYCRILSVNGIWYWGQGTQVTVSS
modifications: 6His tag; Aritifical sequence
Average tumor weight (g) [1]: 1.758 ± 0.212 (g)
Average tumor suppression rate (%) [1]: 26.3%
number of lung tumor nodules compared with the model group (in words) [2]: a small decrease in the number of tumor nodules
Average tumor weight (g) [2]: 1.752 ± 0.214 (g)
Average tumor suppression rate (%) [2]: 22.9%
Number of metastatic lung nodules [2]: 27
Average tumor weight (g) [3]: 1.735 ± 0.206 (g)
Average tumor suppression rate (%) [3]: 23.4%
